In patent publication US12723063B2, “GIPR-agonist compounds” (Eli Lilly and Company, priority 2019, dated 2026):
pKi: −log10 of the molar value.

Tests used:
[1] = Pharmacokinetics in male cynomolgus monkeys, single subcutaneous administration; format: in vivo, cynomolgus monkey; conditions: 50 nmol/kg single SC, mean n = 2; for CL/F / Tmax / half-life: cynomolgus monkey, plasma
Protocol: The pharmacokinetics of select Examples are evaluated following a single subcutaneous administration of 50 nmol/kg to male cynomolgus monkeys. Blood samples are collected over 504 hours and resulting individual plasma concentrations are used to calculate pharmacokinetic parameters. Peptide plasma (K3 EDTA) concentrations are determined using a qualified LC/MS method that measured the intact mass of the compound. Each peptide and an analog as an internal standard are extracted from 100% cynomolgus monkey plasma using a protein precipitation method. Instruments are combined for LC/MS detection.

[2] = Pharmacokinetics in male Sprague Dawley rats, single subcutaneous administration; format: in vivo, Sprague Dawley rat; conditions: 100 nmol/kg single SC, mean n = 3 (example 3 n = 1); for CL/F / Tmax / half-life: rat, plasma
Protocol: The pharmacokinetics of select Examples are evaluated following a single subcutaneous (SC) administration of 100 nmol/kg to male Sprague Dawley rats. Blood samples are collected over 168 hours following SC administration. Pharmacokinetic parameters are calculated using individual plasma concentrations. A qualified LC/MS method that measures the intact mass of the Example is used to determine plasma (K3 EDTA) concentrations. Each peptide and an analog as an internal standard are extracted from 100% rat plasma using a protein precipitation method. Instruments are combined for LC/MS detection. Mean pharmacokinetic parameters for the Examples are shown in […]

[3] = tested on: CD4+ T cells (CD8+ T cell-depleted PBMCs); test: CD4+ T cell proliferation assay (immunogenicity assessment); format: cell-based, human; conditions: 0.33 μM, 7 days, 10 healthy donors; positive response CDI>2.5
Protocol: Protein therapeutics that induce less than 30% positive response in the CD4+ T cell proliferation assay are associated with a low risk of immunogenicity. Briefly, to assess the propensity for a clinical immunogenic response to the compounds of Examples 1, 2, 3, 5, and 6, CD8+ T cell-depleted peripheral blood mononuclear cells (PBMCs) are prepared and labeled with carboxyfluorescein diacetate succinimidyl ester (CFSE; Invitrogen) from a cohort of 10 healthy donors with diverse human leukocyte antigen (HLA) class II haplotypes. Each donor is tested in triplicate with 2.0 mL media control, keyhole limpet hemocyanin (KLH: 0.33 μM), and the compounds of Examples 1, 2, 3, 5, and 6 (0.33 μM). Cultures are incubated for 7 days at 37° C. with 5% CO2. On day 7, samples are analyzed by flow cytometry using a BD LSR II Fortessa (Becton Dickinson; Franklin Lakes, NJ), equipped with a high throughput sampler (HTS). Data is analyzed using FlowJo® Software (FlowJo, LLC/TreeStar; Ashland, OR).
• Cell Division Index (“CDI”): proportion of divided CD4+ T cells to the total number of CD4+ T cells in stimulated versus unstimulated samples.

[4] = target: T1, human GcgR (Homo sapiens, UniProt P47871); test: [125I]-Glucagon binding, SPA with WGA beads, 0.1% bacitracin; conditions: geometric mean, read-out: hGcgR Ki
T1 construct: expressed in transfected cells; crude membranes
T1 sequence (P47871 26-477): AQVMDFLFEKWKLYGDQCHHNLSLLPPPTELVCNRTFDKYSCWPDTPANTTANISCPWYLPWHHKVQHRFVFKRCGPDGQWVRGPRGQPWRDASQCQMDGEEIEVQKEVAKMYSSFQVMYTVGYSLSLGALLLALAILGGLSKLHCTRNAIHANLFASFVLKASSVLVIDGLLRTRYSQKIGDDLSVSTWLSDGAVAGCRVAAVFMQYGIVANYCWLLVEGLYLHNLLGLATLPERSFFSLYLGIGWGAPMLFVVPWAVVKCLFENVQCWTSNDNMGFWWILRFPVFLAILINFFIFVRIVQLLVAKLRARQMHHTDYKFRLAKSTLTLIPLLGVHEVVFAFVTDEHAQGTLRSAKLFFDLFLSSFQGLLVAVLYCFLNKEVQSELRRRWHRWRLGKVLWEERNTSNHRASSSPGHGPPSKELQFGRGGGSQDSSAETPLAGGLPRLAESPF
Outline: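 SPA competition binding with WGA beads on crude membranes from HEK293 cells stably expressing hGcgR. Buffer: 25 mM HEPES pH 7.4, 2.5 mM CaCl2, 1 mM MgCl2, 0.1% bacitracin, 0.003% Tween-20; 10-point 3-fold dilutions, NSB with 1 μM Gcg.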

SMILES	AUCInf/Dose [1] [hr*kg*nmol/L/nmol]	Cmax/Dose [1] [kg*nmol/L/nmol]	CL/F [1] [mL/h/kg]	Tmax [1] [h]	half-life [1] [h]	AUCInf/Dose [2] [hr*kg*nmol/L/nmol]	Cmax/Dose [2] [kg*nmol/L/nmol]	CL/F [2] [mL/h/kg]	Tmax [2] [h]	half-life [2] [h]	% Donor Response (n = 10) [3] [%]	pKi [4]
CC[C@H](C)[C@H](NC(=O)[C@H](Cc1ccccc1)NC(=O)[C@@H](NC(=O)CNC(=O)[C@H](CCC(=O)O)NC(=O)C(C)(C)NC(=O)[C@@H](N)Cc1ccc(O)cc1)[C@@H](C)O)C(=O)N[C@@H](CO)C(=O)N[C@@H](CC(=O)O)C(=O)N[C@@H](Cc1ccc(O)cc1)C(=O)N[C@@H](CO)C(=O)N[C@H](C(=O)N[C@@](C)(CC(C)C)C(=O)N[C@@H](CC(C)C)C(=O)N[C@@H](CC(=O)O)C(=O)N[C@@H](CCCCN)C(=O)N[C@@H](CCCCNC(=O)COCCOCCNC(=O)COCCOCCNC(=O)CC[C@H](NC(=O)CCCCCCCCCCCCCCCCCCC(=O)O)C(=O)O)C(=O)N[C@@H](Cc1c[nH]cn1)C(=O)N[C@@H](CCC(N)=O)C(=O)NC(C)(C)C(=O)N[C@@H](CC(=O)O)C(=O)N[C@@H](Cc1ccccc1)C(=O)N[C@H](C(=O)N[C@@H](CCC(=O)O)C(=O)N[C@@H](Cc1ccncc1)C(=O)N[C@@H](CC(C)C)C(=O)N[C@@H](CC(C)C)C(=O)N[C@@H](CCC(=O)O)C(=O)N[C@@H](C)C(=O)NCC(=O)N1CCC[C@H]1C(=O)N[C@@H](CO)C(=O)N[C@@H](CO)C(=O)NCC(=O)N[C@@H](C)C(=O)N1CCC[C@H]1C(=O)N1CCC[C@H]1C(=O)N1CCC[C@H]1C(=O)N[C@@H](CO)C(N)=O)C(C)C)[C@@H](C)CC [Example 3]	1764	12.1	0.57	60	88.8	130	3.03	7.67	12	24.9	0	6.47
CC[C@H](C)[C@H](NC(=O)[C@H](CO)NC(=O)[C@H](Cc1ccc(O)cc1)NC(=O)[C@H](CC(=O)O)NC(=O)[C@H](CO)NC(=O)[C@@H](NC(=O)[C@H](Cc1ccccc1)NC(=O)[C@@H](NC(=O)CNC(=O)[C@H](CCC(=O)O)NC(=O)[C@@H](C)NC(=O)[C@@H](N)Cc1ccc(O)cc1)[C@@H](C)O)[C@@H](C)CC)C(=O)N[C@@H](CC(C)C)C(=O)N[C@@H](CC(C)C)C(=O)N[C@@H](CC(=O)O)C(=O)N[C@@H](CCCCN)C(=O)N[C@@H](CCCCNC(=O)COCCOCCNC(=O)COCCOCCNC(=O)CC[C@H](NC(=O)CCCCCCCCCCCCCCCCC(=O)O)C(=O)O)C(=O)N[C@@H](C)C(=O)N[C@@H](CCC(N)=O)C(=O)NC(C)(C)C(=O)N[C@@H](CC(=O)O)C(=O)N[C@@H](Cc1ccccc1)C(=O)N[C@H](C(=O)N[C@@H](CC(N)=O)C(=O)N[C@@H](Cc1c[nH]c2ccccc12)C(=O)N[C@@H](CC(C)C)C(=O)N[C@@H](CC(C)C)C(=O)N[C@@H](C)C(=O)N[C@@H](CCC(N)=O)C(=O)NCC(=O)N1CCC[C@H]1C(=O)N[C@@H](CO)C(=O)N[C@@H](CO)C(=O)NCC(=O)N[C@@H](C)C(=O)N1CCC[C@H]1C(=O)N1CCC[C@H]1C(=O)N1CCC[C@H]1C(=O)N[C@@H](CO)C(N)=O)C(C)C [Example 2]	624	6.92	1.61	6	51.8	304	5.47	3.3	12	26.9	10	6.42
